In patent publication US9272980B2, “Anticancer agent” (KTN BioTec, Inc., priority 2014, dated 2016):

What was measured:
[1] = tested on: human malignant pleural mesothelioma cell lines (NCI-H28, NCI-H2052, NCI-H2452 and MSTO-211H cells); assay: MTT cell viability assay, malignant mesothelioma cell lines; assay type: cell-based; details: 24 hr
Description: Cancer cells (NCI-H28, NCI-H2052, NCI-H2452 and MSTO-211H) treated or not treated with a given concentration of each test compound for 24 hr were subjected to MTT assay. […] As a control, MTT intensity of the cells not treated with any of naftopidil and the aryloxy derivative of the present invention was used.
NCI-H28, NCI-H2052, NCI-H2452 and MSTO-211H cells were used as human malignant pleural mesothelioma cell lines. These cells were purchased from American Type Culture Collection (Manassas, Va., USA). The cells were cultured in RPMI (Roswell Park Memorial Institute)-1640 medium added with 0.003% (W/V) L-glutamine.
(§1) In all cultures, the medium was supplied with 10% (v/v) heat inactivated bovine serum, penicillin (final concentration 100 U/ml) and streptomycin (final concentration 0.1 mg/ml), and culture was performed at 37° C. under humidification atmosphere of 5% CO2 and 95% air.
(§2) The cell viability was measured by a method using MTT (3-(4,5-dimethyl-2-thiazolyl)-2,5-diphenyl-2H-tetrazolium bromide) in the same manner as in a published report (Cell Physiol Biochem 2012; 30: 61-74).

[2] = tested on: human liver cancer cell lines (HepG2 and HuH-7 cells); assay: MTT cell viability assay, liver cancer cell lines; assay type: cell-based; details: HepG2, HuH-7 cells, 1-100 μM, 24 hr
Description: (§3) The following cell lines treated or not treated with a given concentration of HUHS1015 for 24 hr were subjected to MTT assay. (A) lung cancer cell line (B) liver cancer cell line (C) gastric cancer cell line (D) bladder cancer cell line (E) prostate cancer cell line (F) kidney cancer cell line. […] As a control, MTT intensity of the cells not treated with HUHS1015 was used.
HepG2 cells and HuH-7 cells were used as human […] cancer cell lines. These cells were obtained from RIKEN cell bank (Ibaraki, Japan) and cultured in DMEM (Dulbecco's Modified Eagles Medium).
as §1, §2

[3] = tested on: human bladder cancer cell lines (253J, 5637, KK-47, TCCSUP, T24, and UM-UC-3 cells); assay: MTT cell viability assay, bladder cancer cell lines; assay type: cell-based; details: T24, UM-UC-3 cells, 1-100 μM, 24 hr
Description: as §3
253J cells, 5637 cells, KK-47 cells, TCCSUP cells, T24 cells and UM-UC-3 cells were used as human bladder cancer cell lines.
KK-47 cells were provided by Dr. Naito (Department of Urology, Kyushu University, Fukuoka, Japan). 253J cells, 5637 cells, TCCSUP cells, T24 cells and UM-UC-3 cells were purchased from American Type Culture Collection (Manassas, Va., USA). All cells were cultured in RPMI-1640 medium.
as §1, §2

[4] = tested on: MKN45 gastric cancer cells; assay: Growth of subcutaneously inoculated MKN45 gastric cancer cells in nude mouse; assay type: in vivo; details: nude BALB/c-nu/nu mouse, MKN45 subcutaneous, 0.23 mg/mouse 25 μM intraperitoneal twice per week, day 33
Description: MKN45 gastric cancer cells were subcutaneously inoculated into the flank of mouse, and 1 week later (day 0), 25 μM of HUHS1015 and 25 μM of naftopidil were intraperitoneally administered (twice/1 week). As a control, a mouse administered with saline was used. The time-course changes (A) of the tumor volume (mean±SEM, n=7) and the results (B) of tumor weight (mean±SEM, n=7) after the lapse of 33 days are shown. P value, Dunnett's test. NS, not significant
Nude BALB/c-nu/nu mouse (male, 6 week-old) was purchased from Japan SLC, Inc. (Shizuoka, Japan). MKN45 cells (1×10^7 cells) were suspended in a culture medium (200 μl) containing Matrigel (BD Biosciences, San Jose, Calif., USA) and subcutaneously inoculated to the flank of the mouse under general anesthesia with pentobarbital. HUHS1015 (0.23 mg/mouse 25 μM) or naftopidil (0.25 mg/mouse 25 μM) was diluted with saline. At 1 week (Day 0) after inoculation, intraperitoneal administration of saline, HUHS1015 or naftopidil twice per week was started. The longitudinal length (L) and transverse length (S) of the inoculated tumor were measured with calipers, and the tumor volume (V) was calculated from the following formula: V=L×S^2×1/2 The mouse was sacrificed on day 33, the tumor was isolated and the weight thereof was measured.

[5] = tested on: human kidney cancer cell lines (ACHN, RCC4-VHL, and 786-O cells); assay: MTT cell viability assay, kidney cancer cell lines; assay type: cell-based; details: 1-100 μM, 24 hr
Description: as §3
ACHN cells, RCC4-VHL cells and 786-O cells were used as human kidney cancer cell lines. These cells were purchased from European Collection of Animal Cell Cultures (ECACC; Salisbury, UK), and cultured in DMEM.
as §1, §2

[6] = tested on: human lung cancer cell lines (A549, SBC-3, and Lu-65 cells); assay: MTT cell viability assay, lung cancer cell lines; assay type: cell-based; details: A549, SBC-3, Lu-65 cells, 1-100 μM, 24 hr
Description: as §3
A549, SBC-3 and Lu-65 cells were used as human lung cancer cell lines. These cells were purchased from Health Science Research Resources Bank (Osaka, Japan). A549 cells and SBC-3 cells were cultured in MEM (minimum essential medium) added with 0.1 mM non-essential amino acid, and Lu-65 cells were cultured in RPMI-1640 medium.
as §1, §2

[7] = tested on: human gastric cancer cell lines (MKN-28 and MKN-45 cells); assay: MTT cell viability assay, gastric cancer cell lines; assay type: cell-based; details: MKN-28, MKN-45 cells, 1-100 μM, 24 hr
Description: as §3
MKN-28 cells and MKN-45 cells were used as human gastric cancer cell lines. These cells were obtained from Dr. Tatematsu (Nagoya University, Japan) and cultured in RPMI-1640 medium.
as §1, §2

[8] = tested on: human prostate cancer cell lines (DU145, LNCap, and PC-3 cells); assay: MTT cell viability assay, prostate cancer cell lines; assay type: cell-based; details: 1-100 μM, 24 hr
Description: as §3
DU145 cells, LNCap cells and PC-3 cells were used as human prostate cancer cell lines. These cells were purchased from American Type Culture Collection. The DU145 cells were cultured in DMEM. The LNCaP and PC-3 cells were cultured in RPMI-1640 medium.
as §1, §2

[9] = malignant mesothelioma cell lines, 1-100 μM

SMILES: CCCCCCCN1CCN(CC(O)COc2cccc3ccccc23)CC1 (stereo not shown) [HUHS1018, 1-(4-heptylpiperazinyl)-3-(1-naphthyloxyl)propan-2-ol]
- activity in reducing cell viability (MTT) [1, 9]: high activity

SMILES: COc1cccc(N2CCN(CC(O)COc3cccc4ccccc34)CC2)c1 (stereo not shown) [HUHS1002, 1-(4-(3-methoxyphenyl)piperazinyl)-3-(1-naphthyloxyl)propan-2-ol, reference compound]
- activity in reducing cell viability (MTT) [1, 9]: high activity

SMILES: CCCCCCCCN1CCN(CC(O)COc2cccc3ccccc23)CC1 (stereo not shown) [HUHS1019, 3-(1-naphthyloxy)-1-(4-octylpiperazinyl)propan-2-ol]
- activity in reducing cell viability (MTT) [1, 9]: high activity

SMILES: OC(COc1cccc2ccccc12)CN1CCN(c2ccccc2Cl)CC1 (stereo not shown) [HUHS1014, 1-(4-(2-chlorophenyl)piperazinyl)-3-(1-naphthyloxy)-propan-2-ol]
- activity in reducing cell viability (MTT) [1, 9]: high activity

SMILES: COc1ccccc1C1CCN(CC(O)COc2cccc3ccccc23)CC1 (stereo not shown) [HUHS1017, 1-(4-(2-methoxyphenyl)piperidin-1-yl)-3-(1-naphthyloxyl)propan-2-ol]
- activity in reducing cell viability (MTT) [1, 9]: high activity

SMILES: COc1ccccc1NCCNCC(O)COc1cccc2ccccc12 (stereo not shown) [HUHS1015, 1-((2-((2-methoxyphenyl)amino)ethyl)amino)-3-(1-naphthyloxy)propan-2-ol]
- activity in reducing cell viability (MTT) [1, 9]: high activity
- cell viability (MTT) [2]: reduced the cell viability in a concentration dependent manner
- cell viability (MTT) [3]: reduced the cell viability in a concentration dependent manner
- antitumor effect on gastric cancer (tumor volume, tumor weight) [4]: superior to naftopidil
- cell viability (MTT) [5]: reduced the cell viability in a concentration dependent manner
- cell viability (MTT) [6]: reduced the cell viability in a concentration dependent manner
- cell viability (MTT) [7]: reduced the cell viability in a concentration dependent manner
- cell viability (MTT) [8]: reduced the cell viability in a concentration dependent manner

SMILES: COc1ccccc1N1CCN(CC(O)COc2cccc3ccccc23)CC1 (racemic) [naftopidil, (±)-1-[4-(2-methoxyphenyl)piperazinyl]-3-(1-naphthyloxy)propan-2-ol, reference compound]
- cell viability (MTT) ([1]; all examined malignant mesothelioma cell lines, 1-100 μM): reduced the cell viability in a concentration dependent manner
- cell viability (MTT) ([1]; malignant mesothelioma cell lines, concentration of 100 µM, % control): ~0%

SMILES: OC(COc1cccc2ccccc12)CN1CCN(c2ccccc2)CC1 (stereo not shown) [HUHS1004, 3-(1-naphthyloxy)-1-(4-phenylpiperazinyl)propan-2-ol]
- activity in reducing cell viability (MTT) [1, 9]: high activity
